Patent publication US5356888A, “1,1-dioxo-cephem-4-carbothiolic acid derivatives” (Farmitalia Carlo Erba, priority 1988, dated 1994)

Target: T1, human leukocyte elastase (HLE) (Homo sapiens, UniProt P08246)
T1 construct: purchased Calbiochem Lot 702038
T1 sequence (P08246 30-267): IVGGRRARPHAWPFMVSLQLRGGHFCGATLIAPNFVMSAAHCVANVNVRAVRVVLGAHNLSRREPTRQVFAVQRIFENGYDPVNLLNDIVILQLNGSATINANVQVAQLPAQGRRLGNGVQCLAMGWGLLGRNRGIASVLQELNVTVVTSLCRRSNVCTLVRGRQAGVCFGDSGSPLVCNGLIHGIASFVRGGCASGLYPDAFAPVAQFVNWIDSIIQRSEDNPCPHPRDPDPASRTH
Assay: Kinetic parameters for HLE inhibition (release of 7-amino-4-methylcoumarin from N-methoxysuccinyl-alanylprolyl-valyl-7-amido-4-methylcoumarin, fluorescence detection)
Assay type: biochemical
Settings: 37° C., 0.027 M pH 7.4 phosphate buffer, 1% DMSO, 1% MeCN, NaCl (I=0.15); for kon: read-out: kon (rate of formation of the HLE-inhibitor complex); for Ki: steady state, read-out: Ki^ss (apparent dissociation constant of the HLE-inhibitor complex at steady state)
Text: Km =Michaelis constant for the enzyme-substrate pair (independently determined under the same experimental conditions).

SMILES	kon	Ki
CC(=O)OCC1=C(C(=O)SCc2ccccc2)N2C(=O)[C@H](Cl)[C@H]2S(=O)(=O)C1 [Comp. 11, Benzyl 3-acetoxymethyl-7S-chloro-8-oxo-5-thia-1-azabicyclo-[4,2,0]oct-2-ene-5,5-dioxide-2-carbothiolate]	1.26e+06 M⁻¹ s⁻¹	8.2 nM
CC(=O)OCC1=C(C(=O)SC(C)(C)C)N2C(=O)[C@H](Cl)[C@H]2S(=O)(=O)C1 [Comp. 3]	480000 M⁻¹ s⁻¹	2.6 nM
Cn1nnnc1SCC1=C(C(=O)SC(C)(C)C)N2C(=O)[C@H](Cl)[C@H]2S(=O)(=O)C1 [Comp. 60, t-Butyl 7S-chloro-3-(1-methyl-1,2,3,4-tetrazol-5-yl) thiomethyl-8-oxo-5-thia-1-azabicyclo[4,2,0]oct-2-ene-5,5-dioxide-2-carbothiolate]	–	4.3 nM
COCC1=C(C(=O)SC(C)(C)C)N2C(=O)[C@H](Cl)[C@H]2S(=O)(=O)C1 [Comp. 59, t-Butyl 7S-chloro-3-methoxymethyl-8-oxo-5-thia-1-azabicyclo [4,2,0]oct-2-ene-5,5-dioxide-2-carbothiolate]	150000 M⁻¹ s⁻¹	16 nM
